Reference: patent publication US6750202B1, “Phosphinate peptide analogs for the treatment of fibrotic disorders” (priority 1998, dated 2004)
*1 amine or outer side, *2 acyl side, *3 side chain or, on linkers, in order; H or OH if unused. Where a SMILES comes first, the peptide text is derived from it. [ ]: non-standard residue; d: D form. The star is where a group is joined. X1 = C[C@H](CP(=O)(O)[C@H](Cc1ccccc1)N[*:1])C(=O)[*:2]; Cbz = O=C(OCc1ccccc1)*

Legend:
human meprin = details: concentrations of up to 100 nM; FIG. 3
Description: The meprin activity test was carried out in a completely analogous manner to the in-vitro assay for measuring PCP activity. Instead of the recombinant PCP, use was made of human meprin, which also transforms the fluorescence-labeled decapeptide.

[1] = target: recombinant PCP (procollagen C-proteinase) (Homo sapiens, UniProt P13497); details: 100 nM inhibitor; FIG. 1
Sequence of recombinant PCP (procollagen C-proteinase) (P13497 121-986, species assumed): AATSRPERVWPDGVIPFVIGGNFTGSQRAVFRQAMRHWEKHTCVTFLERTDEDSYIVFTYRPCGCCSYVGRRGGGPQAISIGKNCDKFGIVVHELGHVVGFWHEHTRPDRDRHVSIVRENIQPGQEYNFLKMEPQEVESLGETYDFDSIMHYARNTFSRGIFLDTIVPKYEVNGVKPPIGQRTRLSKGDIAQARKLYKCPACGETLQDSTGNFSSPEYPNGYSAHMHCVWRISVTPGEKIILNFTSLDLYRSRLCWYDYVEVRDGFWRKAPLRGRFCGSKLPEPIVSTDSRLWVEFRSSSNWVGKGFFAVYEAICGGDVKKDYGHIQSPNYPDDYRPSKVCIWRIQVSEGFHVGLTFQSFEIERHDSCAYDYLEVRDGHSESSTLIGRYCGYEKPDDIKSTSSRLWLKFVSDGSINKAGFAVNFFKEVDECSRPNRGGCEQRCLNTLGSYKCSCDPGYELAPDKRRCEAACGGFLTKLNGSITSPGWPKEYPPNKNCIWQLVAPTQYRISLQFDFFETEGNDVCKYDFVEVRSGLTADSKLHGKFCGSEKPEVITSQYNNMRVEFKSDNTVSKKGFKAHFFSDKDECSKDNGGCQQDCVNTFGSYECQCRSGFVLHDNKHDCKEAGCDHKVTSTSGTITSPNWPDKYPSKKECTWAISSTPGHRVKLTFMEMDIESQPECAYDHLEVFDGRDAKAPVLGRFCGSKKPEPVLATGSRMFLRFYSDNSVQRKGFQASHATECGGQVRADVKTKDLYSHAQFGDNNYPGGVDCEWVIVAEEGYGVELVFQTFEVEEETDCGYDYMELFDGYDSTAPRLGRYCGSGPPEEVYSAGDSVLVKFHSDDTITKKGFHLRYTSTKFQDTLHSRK

## COC(=O)[C@H](CC(C)C)NC(=O)[C@@H]1CCCN1C(=O)[C@H](C)CP(=O)(O)[C@H](Cc1ccccc1)NC(=O)[C@H](CCCCN)NC(=O)[C@@H]1CCCN1C(=O)OCc1ccccc1 [Z-PKF(PC)APL-O-Me] (Cbz-PK[X1]PL-OMe)
Human meprin
  inhibition of meprin in its transformation of the fluorescence-labeled peptide: only slightly inhibited
[1]
  inhibition of PCP enzyme activity (transformation of the DABCYL-EDANS-decapeptide substrate as a function of time): almost completely inhibited
